{"source": "patent US10973912B2", "about": "“Treatment for myopathy” (Children's Medical Center Corporation, priority 2015, dated 2021)", "tested_on": "ryr1b homozygous mutant zebrafish", "assay_type": "in vivo, zebrafish (Danio rerio)", "description": "In two independent experiments, two pools of 20 larvae from heterozygous ryr1b matings were treated with DMSO or with one of three different concentrations of NIF (1.0-100.0 μg/mL) at 1 dpf and evaluated in terms of touch-evoked escape behaviors at 5 dpf (n=40). Following phenotypic scoring, all living embryos were genotyped using three-primer genomic PCR. Swimming scores for larvae genotype-confirmed as ryr1b homozygous mutants are shown as a percentage of the total number of living larvae in each dose category: 1=poor swimming; 2 or 3=moderate or wild-type swimming. NIF improved mobility of ryr1b mutants at a dose of 10 μg/mL. […] Phospho-Stat3 band intensities were normalized to β-Actin control bands and quantified in Image J (NIH).\nFIGS. 12A-12C show a ketoprofen dose-response and proposed mechanistic link. […] FIG. 12B is a dose-response graph for ketoprofen (KETO). Two pools of 20 larvae from heterozygous ryr1b matings were treated with DMSO or four different concentrations of KETO (1.0-100.0 μg/mL) at 1 dpf and evaluated in terms of touch-evoked escape behaviors at 5 dpf (n=40). Following phenotypic scoring, all living embryos were genotyped using three-primer genomic PCR. Swimming scores for larvae genotype-confirmed as ryr1b homozygous mutants are shown as a percentage of the total number of living larvae in each dose category: 1=poor swimming, 2 or 3=moderate or wild-type swimming. […] Phosphorylated STATs form dimers, translocate to nuclei, and from there are associated with various transcriptional activities. Dubowitz, V. and Sewry, C. (2006) Muscle Biopsy: A Practical Approach. Elsevier-Health Sciences Division.\nThe relatively relaxed zebrafish was initially identified due to a spontaneous autosomal recessive mutation within the ryr1b gene^30. Specifically, ryr1b mutants carry a 4046 base pair (bp) DNA insertion in the intron between exons 48 and 49 that includes an additional 32 bp sequence found in mutant cDNA (FIG. 3)^30. Genotypes of individual embryos were examined using three-primer genomic PCR, with an expected wild-type band of 1,668 bp and a mutant band of 653 bp. Primer sequences were as follows: ryr1b #1 (forward): 5′-[…]-3′ (SEQ ID NO: 4); ryr1b #2 (reverse): 5′-[…]-3′ (SEQ ID NO: 5); and ryr1b #3 (reverse): 5′-[…]-3′ (SEQ ID NO: 6).\nThe primary and secondary screens only tested chemical pools and individual compounds at a single concentration (2.0 μg/mL). Although beneficial in a high-throughput context, this approach can result in false positives and false negatives. […] For analysis, pools of 20 larvae obtained from heterozygous ryr1b matings were treated in duplicate with DMSO or with one of three different concentrations of NIF (1.0-100.0 μg/mL) at 1 dpf and scored for touch-evoked escape behaviors at 5 dpf. All scored larvae were then genotyped using three-primer genomic PCR. […] Next, hit expansion was used to verify JAK-STAT as a potential molecular pathway involved in ryr1b mutant pathology. […] A higher effective dose for 5,15-DPP was consistent with the IC50 measurements reported for each compound^40,41."}
{"smiles": "O=C(N/N=C/c1ccc([N+](=O)[O-])o1)c1ccc(O)cc1", "note": "[Nifuroxazide]", "values": [{"measurement": "dose that improved mobility of ryr1b mutants / optimal activity", "setting": "treated at 1 dpf, touch-evoked escape behaviors at 5 dpf, tested 1.0-100.0 μg/mL", "result": 10, "unit": "µg/mL"}, {"measurement": "touch-evoked escape behaviors / mobility of ryr1b mutants", "setting": "treated from 1 dpf, scored and genotyped at 5 dpf", "result": "ryr1b mutants were among larvae that exhibited wild-type touch-evoked escape behaviors"}]}
